# Experiments:
# Assay type in all cases: functional
# Aspergillus niger [1] = assay: Antimicrobial activity against Aspergillus niger MTCC 281 at 100 ug/ml after 24 hrs by agar disc diffusion method; details: MTCC 281, 24 h, read-out: DIZ
# [2] = Antiinflammatory activity against heat-induced albumin denaturation at […] preincubated for 15 mins before heat induction by UV-vis spectrophotometer analysis
# [3] = test system: Radical scavenging activity; assay: Antioxidant activity assessed as DPPH free radical scavenging activity at 50 ug/ml after 20 mins
# [4] = Antioxidant activity assessed as reducing power of ferric ion at 100 ug/ml after 20 mins; design: scale not given: the % may be the effect or the level left
# Bacillus cereus [5] = assay: Antimicrobial activity against Bacillus cereus MTCC 8372 at 50 ug/ml after 24 hrs by agar disc diffusion method; details: MTCC 8372, 24 h, read-out: DIZ
# Klebsiella pneumoniae [6] = assay: Antimicrobial activity against Klebsiella pneumoniae MTCC 3384 at 50 ug/ml after 24 hrs by agar disc diffusion method; details: MTCC 3384, 24 h, read-out: DIZ
# Shigella flexneri [7] = assay: Antimicrobial activity against Shigella flexneri MTCC 1457 at 100 ug/ml after 24 hrs by agar disc diffusion method; details: MTCC 1457, 24 h, read-out: DIZ
# Aspergillus flavus [8] = assay: Antimicrobial activity against Aspergillus flavus MTCC 873 at 50 ug/ml after 24 hrs by agar disc diffusion method; details: MTCC 873, 24 h, read-out: DIZ
# Staphylococcus aureus [9] = assay: Antimicrobial activity against Staphylococcus aureus MTCC 96 at 50 ug/ml after 24 hrs by agar disc diffusion method; details: MTCC 96, 24 h, read-out: DIZ
# Aspergillus flavus [10] = assay: Antimicrobial activity against Aspergillus flavus MTCC 873 at 100 ug/ml after 24 hrs by agar disc diffusion method; details: MTCC 873, 24 h, read-out: DIZ
# Escherichia coli [11] = assay: Antimicrobial activity against Escherichia coli MTCC 724 at 100 ug/ml after 24 hrs by agar disc diffusion method; details: MTCC 724, 24 h, read-out: DIZ
# [12] = test system: Radical scavenging activity; assay: Antioxidant activity assessed as DPPH free radical scavenging activity at 100 ug/ml after 20 mins
# [13] = Antioxidant activity assessed as reducing power of ferric ion at 50 ug/ml after 20 mins; design: scale not given: the % may be the effect or the level left
# Shigella flexneri [14] = assay: Antimicrobial activity against Shigella flexneri MTCC 1457 at 50 ug/ml after 24 hrs by agar disc diffusion method; details: MTCC 1457, 24 h, read-out: DIZ
# [15] = Antioxidant activity against ferric chloride-induced lipid peroxidation using egg lecithin at 50 ug/ml after 1 hr
# Aspergillus flavus [16] = assay: Antimicrobial activity against Aspergillus flavus MTCC 873
# Shigella flexneri [17] = assay: Antimicrobial activity against Shigella flexneri MTCC 1457
# Klebsiella pneumoniae [18] = assay: Antimicrobial activity against Klebsiella pneumoniae MTCC 3384
# [19] = Antioxidant activity against ferric chloride-induced lipid peroxidation using egg lecithin at 100 ug/ml after 1 hr
# [20] = Antioxidant activity against ferric chloride-induced lipid peroxidation using egg lecithin at 10 ug/ml after 1 hr
# Staphylococcus aureus [21] = assay: Antimicrobial activity against Staphylococcus aureus MTCC 96 at 100 ug/ml after 24 hrs by agar disc diffusion method; details: MTCC 96, 24 h, read-out: DIZ
# Aspergillus niger [22] = assay: Antimicrobial activity against Aspergillus niger MTCC 281
# Escherichia coli [23] = assay: Antimicrobial activity against Escherichia coli MTCC 724 at 50 ug/ml after 24 hrs by agar disc diffusion method; details: MTCC 724, 24 h, read-out: DIZ
# Staphylococcus aureus [24] = assay: Antimicrobial activity against Staphylococcus aureus MTCC 96
# Bacillus cereus [25] = assay: Antimicrobial activity against Bacillus cereus MTCC 8372 at 100 ug/ml after 24 hrs by agar disc diffusion method; details: MTCC 8372, 24 h, read-out: DIZ
# Aspergillus niger [26] = assay: Antimicrobial activity against Aspergillus niger MTCC 281 at 50 ug/ml after 24 hrs by agar disc diffusion method; details: MTCC 281, 24 h, read-out: DIZ
# [27] = test system: Radical scavenging activity; assay: Antioxidant activity assessed as DPPH free radical scavenging activity at 10 ug/ml after 20 mins
# Klebsiella pneumoniae [28] = assay: Antimicrobial activity against Klebsiella pneumoniae MTCC 3384 at 100 ug/ml after 24 hrs by agar disc diffusion method; details: MTCC 3384, 24 h, read-out: DIZ
# Escherichia coli [29] = assay: Antimicrobial activity against Escherichia coli MTCC 724
# [30] = Antioxidant activity assessed as reducing power of ferric ion at 10 ug/ml after 20 mins; design: scale not given: the % may be the effect or the level left
# Bacillus cereus [31] = assay: Antimicrobial activity against Bacillus cereus MTCC 8372
Structure (SMILES),zone of inhibition at 100 µg/mL (Aspergillus niger [1]) [mm],inhibition [2] [%],Activity [3] [%],Activity [4] [%],zone of inhibition at 50 µg/mL (Bacillus cereus [5]) [mm],zone of inhibition at 50 µg/mL (Klebsiella pneumoniae [6]) [mm],zone of inhibition at 100 µg/mL (Shigella flexneri [7]) [mm],zone of inhibition at 50 µg/mL (Aspergillus flavus [8]) [mm],zone of inhibition at 50 µg/mL (Staphylococcus aureus [9]) [mm],zone of inhibition at 100 µg/mL (Aspergillus flavus [10]) [mm],zone of inhibition at 100 µg/mL (Escherichia coli [11]) [mm],Activity [12] [%],Activity [13] [%],zone of inhibition at 50 µg/mL (Shigella flexneri [14]) [mm],inhibition [15] [%],MIC (Aspergillus flavus [16]) [µg/mL],MIC (Shigella flexneri [17]) [µg/mL],MIC (Klebsiella pneumoniae [18]) [µg/mL],inhibition [19] [%],inhibition [20] [%],further results
Clc1ccc(C2=NN(c3ccccc3)C(c3noc(-c4ccc(Cl)cc4)n3)C2)cc1 (stereo not drawn),26,78.4,53,86,6,6,12,15,6,25,10,82,32,8,58,10,20,25,83,34,zone of inhibition at 100 µg/mL (Staphylococcus aureus [21]): 12 mm; MIC (Aspergillus niger [22]): 5 µg/mL; zone of inhibition at 50 µg/mL (Escherichia coli [23]): 8 mm; MIC (Staphylococcus aureus [24]): 20 µg/mL; zone of inhibition at 100 µg/mL (Bacillus cereus [25]): 12 mm; zone of inhibition at 50 µg/mL (Aspergillus niger [26]): 20 mm; Activity [27]: 29%; zone of inhibition at 100 µg/mL (Klebsiella pneumoniae [28]): 10 mm; MIC (Escherichia coli [29]): 20 µg/mL; Activity [30]: 16%; MIC (Bacillus cereus [31]): 25 µg/mL
COc1ccccc1-c1nc(C2CC(c3ccc(Cl)cc3)=NN2c2ccccc2)no1 (stereo not drawn),20,56.8,30,68,4,6,8,9,5,10,8,64,23,6,38,15,25,25,67,21,zone of inhibition at 100 µg/mL (Staphylococcus aureus [21]): 10 mm; MIC (Aspergillus niger [22]): 15 µg/mL; zone of inhibition at 50 µg/mL (Escherichia coli [23]): 4 mm; MIC (Staphylococcus aureus [24]): 30 µg/mL; zone of inhibition at 100 µg/mL (Bacillus cereus [25]): 8 mm; zone of inhibition at 50 µg/mL (Aspergillus niger [26]): 10 mm; Activity [27]: 24%; zone of inhibition at 100 µg/mL (Klebsiella pneumoniae [28]): 8 mm; MIC (Escherichia coli [29]): 35 µg/mL; Activity [30]: 12%; MIC (Bacillus cereus [31]): 35 µg/mL
COc1ccc(C2=NN(c3ccccc3)C(/C(N)=N/O)C2)cc1 (stereo not drawn),12,23.8,33,62,4,6,10,5,2,10,8,55,22,6,16,30,25,25,14,10,zone of inhibition at 100 µg/mL (Staphylococcus aureus [21]): 12 mm; MIC (Aspergillus niger [22]): 15 µg/mL; zone of inhibition at 50 µg/mL (Escherichia coli [23]): 3 mm; MIC (Staphylococcus aureus [24]): 50 µg/mL; zone of inhibition at 100 µg/mL (Bacillus cereus [25]): 16 mm; zone of inhibition at 50 µg/mL (Aspergillus niger [26]): 10 mm; Activity [27]: 18%; zone of inhibition at 100 µg/mL (Klebsiella pneumoniae [28]): 9 mm; MIC (Escherichia coli [29]): 55 µg/mL; Activity [30]: 10%; MIC (Bacillus cereus [31]): 35 µg/mL
c1ccc(-c2cc(-c3noc(-c4ccccc4)n3)n(-c3ccccc3)n2)cc1,18,37,28,65,5,3,9,10,3,10,6,39,14,3,40,15,55,50,67,26,zone of inhibition at 100 µg/mL (Staphylococcus aureus [21]): 6 mm; MIC (Aspergillus niger [22]): 20 µg/mL; zone of inhibition at 50 µg/mL (Escherichia coli [23]): 4 mm; MIC (Staphylococcus aureus [24]): 55 µg/mL; zone of inhibition at 100 µg/mL (Bacillus cereus [25]): 8 mm; zone of inhibition at 50 µg/mL (Aspergillus niger [26]): 9 mm; Activity [27]: 18%; zone of inhibition at 100 µg/mL (Klebsiella pneumoniae [28]): 6 mm; MIC (Escherichia coli [29]): 40 µg/mL; Activity [30]: 10%; MIC (Bacillus cereus [31]): 35 µg/mL
COc1ccc(C2=NN(c3ccccc3)C(c3noc(-c4ccccc4)n3)C2)cc1 (stereo not drawn),18,23.3,36,64,3,6,8,7,2,10,8,51,20,7,40,25,25,25,62,26,zone of inhibition at 100 µg/mL (Staphylococcus aureus [21]): 12 mm; MIC (Aspergillus niger [22]): 10 µg/mL; zone of inhibition at 50 µg/mL (Escherichia coli [23]): 6 mm; MIC (Staphylococcus aureus [24]): 55 µg/mL; zone of inhibition at 100 µg/mL (Bacillus cereus [25]): 12 mm; zone of inhibition at 50 µg/mL (Aspergillus niger [26]): 10 mm; Activity [27]: 19%; zone of inhibition at 100 µg/mL (Klebsiella pneumoniae [28]): 8 mm; MIC (Escherichia coli [29]): 25 µg/mL; Activity [30]: 11%; MIC (Bacillus cereus [31]): 45 µg/mL
COc1ccc(-c2nc(C3CC(c4ccc(O)cc4)=NN3c3ccccc3)no2)cc1OC (stereo not drawn),26,58.5,53,75,10,8,18,14,8,20,12,76,24,10,45,10,15,25,73,32,zone of inhibition at 100 µg/mL (Staphylococcus aureus [21]): 18 mm; MIC (Aspergillus niger [22]): 5 µg/mL; zone of inhibition at 50 µg/mL (Escherichia coli [23]): 7 mm; MIC (Staphylococcus aureus [24]): 20 µg/mL; zone of inhibition at 100 µg/mL (Bacillus cereus [25]): 16 mm; zone of inhibition at 50 µg/mL (Aspergillus niger [26]): 18 mm; Activity [27]: 31%; zone of inhibition at 100 µg/mL (Klebsiella pneumoniae [28]): 12 mm; MIC (Escherichia coli [29]): 25 µg/mL; Activity [30]: 18%; MIC (Bacillus cereus [31]): 15 µg/mL
COc1ccccc1-c1nc(C2CC(c3ccccc3)=NN2c2ccccc2)no1 (stereo not drawn),14,23.9,34,54,2,3,8,10,2,12,6,44,22,3,31,15,50,55,60,11,zone of inhibition at 100 µg/mL (Staphylococcus aureus [21]): 6 mm; MIC (Aspergillus niger [22]): 20 µg/mL; zone of inhibition at 50 µg/mL (Escherichia coli [23]): 4 mm; MIC (Staphylococcus aureus [24]): 55 µg/mL; zone of inhibition at 100 µg/mL (Bacillus cereus [25]): 8 mm; zone of inhibition at 50 µg/mL (Aspergillus niger [26]): 8 mm; Activity [27]: 14%; zone of inhibition at 100 µg/mL (Klebsiella pneumoniae [28]): 6 mm; MIC (Escherichia coli [29]): 35 µg/mL; Activity [30]: 10%; MIC (Bacillus cereus [31]): 55 µg/mL
N/C(=N\O)C1CC(c2ccc(Cl)cc2)=NN1c1ccccc1 (stereo not drawn),8,59.1,39,68,4,8,12,6,3,10,10,69,28,8,12,25,20,20,14,18,zone of inhibition at 100 µg/mL (Staphylococcus aureus [21]): 5 mm; MIC (Aspergillus niger [22]): 20 µg/mL; zone of inhibition at 50 µg/mL (Escherichia coli [23]): 3 mm; MIC (Staphylococcus aureus [24]): 40 µg/mL; zone of inhibition at 100 µg/mL (Bacillus cereus [25]): 8 mm; zone of inhibition at 50 µg/mL (Aspergillus niger [26]): 8 mm; Activity [27]: 29%; zone of inhibition at 100 µg/mL (Klebsiella pneumoniae [28]): 10 mm; MIC (Escherichia coli [29]): 40 µg/mL; Activity [30]: 11%; MIC (Bacillus cereus [31]): 30 µg/mL

# Reference: ChEMBL document CHEMBL2406981, “Novel pyrazoline amidoxime and their 1,2,4-oxadiazole analogues: synthesis and pharmacological screening” (Bioorg Med Chem Lett, 2013)
